Measurements: paper PMC3242765, “Inhibitors of Alphavirus Entry and Replication Identified with a Stable Chikungunya Replicon Cell Line and Virus-Based Assays” (PLoS ONE, 2011)
Like-named read-outs stand apart in the source and are kept apart here.

Legend:
SINV = assay: CPE reduction assay, SINV (WST-1); format: cell-based, Sindbis virus (SINV); settings: read-out: SINV IC50 (CPE reduction)
SFV [1] = assay: Viral yield analysis using a plaque assay; format: cell-based, Semliki Forest virus (SFV); settings: for Decrease of SFV titer versus untreated control: 50 µM compound, MOI 0.01, 16 h; for SFV yield: BHK cells, MOI 0.01, 50 µM compound, 16 h, untreated control 1.4×10^9 PFU/ml
SFV-Rluc [2] = assay: microbe, parasite or virus in culture; settings: Semliki Forest virus, BHK, 14 h, read-out: SFV IC50
SFV-Rluc [3] = settings: for IC50: read-out: SFV IC50
CHIKV replicon = assay: microbe, parasite or virus in culture; format: cell-based, Chikungunya virus (CHIKV)
BHK cells = assay: Cell viability ATP assay, BHK cells; format: cell-based, hamster; settings: read-out: Cell viability IC50
BHK-CHIKV-NCT cells = assay: Cell viability ATP assay, BHK-CHIKV-NCT cells; format: cell-based, hamster; settings: Mesocricetus auratus, 48 h, read-out: Cell viability IC50, ATP assay, 48 h exposure of BHK-CHIKV-NCT cells, up to 200 µM
SFV [4] = assay: CPE reduction assay, SFV (WST-1); format: cell-based, Semliki Forest virus (SFV); settings: read-out: SFV IC50 (CPE reduction)
CHIKV-Rluc = assay: microbe, parasite or virus in culture; format: cell-based, Chikungunya virus (CHIKV); settings: read-out: CHIKV-Rluc IC50
SFVts9-Rluc = format: cell-based, Semliki Forest virus (SFV)
[5] = Chikungunya virus, 48 h, read-out: EGFP IC50
[6] = Chikungunya virus, 48 h, read-out: Rluc IC50
[7] = Mesocricetus auratus, BHK, 48 h
[8] = Semliki Forest virus, BHK, 22 h

| Structure (SMILES) | IC50 (SINV; Sindbis virus, BHK, 24 h) [µM] | SFV yield (SFV [1]) | IC50 (SFV-Rluc [2]) [µM] | SI (selectivity index) (SFV-Rluc [3]) | IC50 (CHIKV replicon; [5]) [µM] | IC50 (CHIKV replicon; [6]) [µM] | IC50 (BHK cells; [7]) [µM] | IC50 (BHK-CHIKV-NCT cells) [µM] | IC50 (SFV [4]; [8]) [µM] | SFV replication % left (surviving fraction, remaining percentage of SFV replication) (SFV-Rluc [3]) [%] | CHIKV replicon % left (CHIKV replicon) [%] | IC50 (CHIKV-Rluc; Chikungunya virus, BHK, 16 h) [µM] | Effect on SFV entry (Rluc activity) (SFVts9-Rluc) | further results |
| --- | --- | --- | --- | --- | --- | --- | --- | --- | --- | --- | --- | --- | --- | --- |
| Nc1ncnc2c1ncn2[C@@H]1O[C@H](CO)[C@@H](N)[C@H]1O [3′-NH2-3′-deoxyadenosine, 3′-amino-3′-deoxyadenosine] | 23.4 | 2.7×10^7 PFU/ml | 16.2 | 10.7 | 34 | 62.4 | 174 | 187 | 17.5 |  |  |  |  | Decrease of SFV titer versus untreated control (SFV [1]): two orders of magnitude |
| C#C[C@]1(O)CC[C@H]2[C@@H]3CCc4cc(O)ccc4[C@H]3CC[C@@]21C [17-Ethinylestradiol] | 56.8 | 9.0×10^8 PFU/ml | 9.5 | >21.1 |  |  | > 200 |  | 63 |  |  |  |  |  |
| O=c1cc(-c2ccc(O)cc2)oc2cc(O)cc(O)c12 [Apigenin] | 7.2 | 6.7×10^7 PFU/ml | 20.6 | >9.7 | 22.5 | 28.3 | > 200 | > 200 | 4.4 | 18.0 | 8.7 | 70.8 | None of the other compounds, including the flavonoids apigenin, chrysin, naringenin and silybin, inhibited SFV entry |  |
| COc1c2ccoc2cc2oc(=O)ccc12 [Bergapten] | 16.2 | 1.2×10^8 PFU/ml | 8.1 | >24.6 |  |  | > 200 |  | 9.2 |  |  |  |  |  |
| CN(C)CCCN1c2ccccc2Sc2ccc(Cl)cc21 [Chlorpromazine] |  |  | 15.7 |  |  |  | 67.3 |  |  |  |  | 39.4 | decreased the Rluc activity |  |
| O=c1cc(-c2ccccc2)oc2cc(O)cc(O)c12 [Chrysin] | 43.3 | 2.9×10^8 PFU/ml | 13.7 | >14.6 | 46.8 | 50.2 | > 200 | > 200 | 22.9 | 18.1 | 13.8 | 127 | None of the other compounds, including the flavonoids apigenin, chrysin, naringenin and silybin, inhibited SFV entry |  |
| CCN(CC)c1ccc2cc(-c3nc4ccccc4n3C)c(=O)oc2c1 [Coumarin 30] |  | 5.0×10^8 PFU/ml |  |  |  |  |  |  |  | 12.3 | 44.1 |  |  | IC50 (SINV; BHK cells, MOI 0.01, 24 h post-infection, WST-1, 200 µM to 0.1 µM): 11.8 µM; IC50 (SFV-Rluc [3]): 0.4 µM; IC50 (BHK cells; ATP assay, 48 h exposure of BHK cells): 92.4 µM; IC50 (CHIKV-Rluc): 6.4 µM; IC50 (SFV [4]; BHK cells, MOI 0.01, 22 h post-infection, WST-1, 200 µM to 0.1 µM): 5.5 µM |
| CCN(CC)C(C)CN1c2ccccc2Sc2ccccc21 (stereo not drawn) [Ethopropazine] | 21.4 | 8.1×10^8 PFU/ml | 16 | 10.4 |  |  | 167 |  | 17.1 |  |  | 61.5 | decreased the Rluc activity |  |
| CN1CCC(CN2c3ccccc3Sc3ccccc32)C1 (stereo not drawn) [Methdilazine] |  |  | 11.3 | 5.6 |  |  | 63.8 |  |  | 22.5 | 19.1 | 84.5 | decreased the Rluc activity |  |
| COc1c(C)c2c(c(O)c1C/C=C(\C)CCC(=O)O)C(=O)OC2 [Mycophenolic acid, reference compound] | 44.4 | 1.2×10^8 PFU/ml | ~100 | >1.7 | ~1 |  | > 200 | > 200 | 39 |  |  |  |  | Decrease of SFV titer versus untreated control (SFV [1]): approximately one order of magnitude; IC50 (SFV-Rluc [3]): 121 µM; Change of replicon IC50 with guanosine supplementation (CHIKV replicon): increased by at least two orders of magnitude; IC50 (CHIKV replicon; read-out: EGFP IC50): 1.5 µM |
